PubChem BioAssay (NCI)
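Where inhibition never reached the appropriate level, the endpoint shown equals the highest concentration tested. Otherwise, values were interpolated linearly from a five-concentration, 48-hour dose response in 96-well plates. TGI denotes the concentration required for complete inhibition of growth.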

Key:
Assay in all cases: growth of human tumour cells (NCI), 48 h
SF-295 CNS = tested on: SF-295 CNS
HOP-18 NSCLC = tested on: HOP-18 NSCLC
DMS 114 small cell lung = tested on: DMS 114 small cell lung
SF-539 CNS = tested on: SF-539 CNS
SN12C renal = tested on: SN12C renal
M19-MEL melanoma = tested on: M19-MEL melanoma
SNB-78 CNS = tested on: SNB-78 CNS
KM20L2 colon = tested on: KM20L2 colon
RXF-631 renal = tested on: RXF-631 renal
EKVX NSCLC = tested on: EKVX NSCLC
DMS 273 small cell lung = tested on: DMS 273 small cell lung
XF 498 CNS = tested on: XF 498 CNS
LXFL 529 NSCLC = tested on: LXFL 529 NSCLC
NCI-H460 lung = tested on: NCI-H460 lung
DLD-1 colon = tested on: DLD-1 colon
MDA-N = tested on: MDA-N
MDA-MB-435 = tested on: MDA-MB-435
BT-549 breast = tested on: BT-549 breast

Row | SMILES | TGI (SF-295 CNS) | TGI (HOP-18 NSCLC) | TGI (DMS 114 small cell lung) | TGI (SF-539 CNS) | TGI (SN12C renal) | TGI (M19-MEL melanoma) | TGI (SNB-78 CNS) | TGI (KM20L2 colon) | TGI (RXF-631 renal) | TGI (EKVX NSCLC) | TGI (DMS 273 small cell lung) | TGI (XF 498 CNS) | TGI (LXFL 529 NSCLC) | TGI (NCI-H460 lung) | TGI (DLD-1 colon) | TGI (MDA-N) | TGI (MDA-MB-435) | TGI (BT-549 breast)
1 | CCOP(=O)(C/C(=N/NC(C)(C)C)C(=O)Nc1nc2ccc(C)cc2s1)OCC | > 100 µM | > 100 µM | > 100 µM | > 100 µM | > 100 µM | > 100 µM | > 100 µM | > 100 µM | > 100 µM | > 100 µM | > 100 µM | > 100 µM | > 100 µM | > 100 µM |  |  |  | 
2 | CCC(=O)NCC1(c2c[nH]c3ccccc23)SCCS1 | > 100 µM | > 100 µM | > 100 µM | > 100 µM | > 100 µM | > 100 µM | > 100 µM | > 100 µM |  | > 100 µM | > 100 µM | > 100 µM | > 100 µM | > 100 µM | > 100 µM |  |  | 
3 | O=c1[nH]nc2c3n[nH]c(=O)n3c3ccccc3n12 | > 100 µM |  | > 100 µM | > 100 µM | > 100 µM | > 100 µM | > 100 µM | > 100 µM | > 100 µM | > 100 µM | > 100 µM | > 100 µM | > 100 µM | > 100 µM | > 100 µM |  |  | 
4 | CCOC(=O)NC(=O)c1cn(-c2ccc(CCOC(=O)CCCCCCCCC(=O)OCCc3ccc(-n4cc(C(=O)NC(=O)OCC)c(=O)[nH]c4=O)cc3)cc2)c(=O)[nH]c1=O | > 100 µM | > 100 µM | > 100 µM | > 100 µM | > 100 µM | > 100 µM | > 100 µM | > 100 µM | > 100 µM | > 100 µM |  | > 100 µM | > 100 µM | > 100 µM | > 100 µM |  |  | 
5 | CN1C(=O)c2cccc3c([N+](=O)[O-])ccc(c23)C1=O | 28.1 µM | 30.8 µM | 11.2 µM | 26.2 µM | 24.9 µM | 24.5 µM | 32 µM | 19.5 µM | 17.6 µM | 29.4 µM | 15.7 µM |  | 3.89 µM | 11.7 µM | 12.1 µM |  |  | 
6 | COc1ccc(OC)c2c1C(=O)C(Cl)=C(Cl)C2=O | 38.6 µM | 12.4 µM | 4.76 µM | 11.6 µM | 23.1 µM | 16.2 µM | 15.8 µM | 22.3 µM |  | 21.9 µM | 20.1 µM | 3.67 µM | 4.74 µM | 44.3 µM | 11.8 µM | 4.19 µM | 5.88 µM | 
7 | CCCC/C=C1\CCC(CN2CCOCC2)C1=O (stereo unspecified) | 29.8 µM | 2.05 µM | 15.8 µM | 17.5 µM | 10.7 µM | 15.2 µM | 32.3 µM | 11.4 µM | 29.2 µM | 28.3 µM | 17.6 µM | 3.15 µM | 2.74 µM | 38.2 µM | 3.13 µM | 22.7 µM | 23 µM | 9.47 µM
8 | COc1cc([C@@H]2c3cc4c(cc3[C@@H](NC(=O)c3ccc(C(C)=O)cc3)C3COC(=O)[C@@H]32)OCO4)cc(OC)c1O (stereo partly specified) | > 100 µM | > 100 µM | 4.74 µM | 1.89 µM | 2.03 µM | 25.5 µM | 85 µM | 8.05 µM | 10.6 µM | 17.6 µM | 7.62 µM | 5.7 µM | > 100 µM | 1.53 µM | 17.7 µM |  |  | 
9 | CCCCC/C=C1\CCC(CN2CCOCC2)C1=O (stereo unspecified) | 32.3 µM | 27.5 µM | 38.5 µM | 30 µM | 37.6 µM | > 54.8 µM | 47.4 µM | 19 µM | 44.9 µM | 29.7 µM |  | 31.8 µM | 16.6 µM | 49.8 µM | 19.2 µM | 25.4 µM | 17.8 µM | 32.3 µM
